Data taken from US20090197957A1, “Methods and compositions for the treatment of pain” (Nuon Therapeutics, Inc., priority 2005, published 2009).
Values joined by “and” are separate entries in the source; they are usually repeats but may differ in a detail not shown here. Equal entries are not always repeated.

Assays:
[1] = test system: acetic acid-induced writhing; assay: Analgesia, acetic acid writhing in mice (Example 3); assay type: in vivo, mouse; details: 100 mg/kg PO
Method: 3-Hydroxyanthranilic acid was evaluated for possible analgesic activity in mouse acetic acid-induced pain response assay.
3-Hydroxyanthranilic acid was purchased from Sigma (USA) by MDS Pharma Services-Taiwan Ltd. and administered orally at the doses of 400, 200 and 100 mg/kg for analgesia, acetic acid-induced writhing assay. 2% Tween 80 was used as the vehicle.
Male CD-1 (Crl.) mice provided by BioLasco Taiwan (under Charles River Laboratories Technology Licensee) were used. Space allocation for 10 animals was 29×18×13 cm. All animals were maintained in a controlled temperature (23° C.-24° C.) and humidity (60%-70%) environment with 12 hours light dark cycles for at least one week in MDS Pharma Services—Taiwan Laboratory prior to use. Free access to standard lab chow for Mice (LabDiet Rodent Diet, PMI Nutrition International, USA) and tap water was granted. All aspects of this work including housing, experimentation and disposal of animals were performed in general accordance with the Guide for the Care and Use of Laboratory Animals (National Academy Press, Washington, D.C., 1996).
Test substance was administered orally to groups of 5 CD-1 (Crl.) derived male or female mice weighing 24±2 g, 2 hour before injection of acetic acid (0.5%, 20 ml/kg IP). Reduction in the number of writhes by 50 percent or more (≧50%) per group of animals observed during the 5 to 10 minute period after acetic acid administration, relative to a vehicle-treated control group, indicates possible analgesic activity.
Test substance was administered orally to groups of 5 mice 1 hour before injection of 0.5% Acetic Acid (20 ml/kg IP). The number of writhing per group of animals observed during the 5 to 10 minute period after acetic acid challenge was observed. Reduction in the number of writhing by 50 percent or more (≧50%) relative to the vehicle-treated control group indicates possible analgesic activity.

[2] = test system: acetic acid-induced writhing; assay: Analgesia, acetic acid writhing in mice (Assay #503900, Example 1); assay type: in vivo, mouse; details: 30 mg/kg PO, 60 minutes before acetic acid
[3] = patients in a colorectal adenoma prevention trial; cited from earlier work
[4] = similar adenoma prevention trial; cited from earlier work
[5] = short-term use following coronary artery by-pass surgery; cited from earlier work

SMILES: CC(=O)Oc1ccccc1C(=O)O [Aspirin]
- No. of Writhing Average ([1]; group of 5 mice): 5
- % Inhibition ([1]; relative to vehicle control): (62) %
- No. of Writhing Individual ([1]; single mice): 0 and 8 and 3 and 7 and 9

SMILES: CC(C)Cc1ccc(C(C)C(=O)O)cc1 (stereo not shown) [Ibuprofen]
- No. of Writhing Average ([2]; group of 5 mice): 8
- % Inhibition ([2]; relative to vehicle control): (53) %
- No. of Writhing Individual ([2]; single mice): 6 and 8 (2×) and 10 (2×)

SMILES: CS(=O)(=O)c1ccc(C2=C(c3ccccc3)C(=O)OC2)cc1 [Rofecoxib, rofecoxib]
- risk of heart attacks or strokes [3]: double the risk

SMILES: Cc1ccc(-c2cc(C(F)(F)F)nn2-c2ccc(S(N)(=O)=O)cc2)cc1 [celecoxib]
- risk of adverse cardiovascular events [4]: triple the risk

SMILES: CCC(=O)NS(=O)(=O)c1ccc(-c2c(-c3ccccc3)noc2C)cc1 [parecoxib]
- incidence of cardiovascular events [5]: increased incidence

SMILES: Cc1onc(-c2ccccc2)c1-c1ccc(S(N)(=O)=O)cc1 [valdecoxib]
- incidence of cardiovascular events [5]: increased incidence
